Measured values: patent US20030161902A1, “Increased lifespan formulation” (priority 2001, published 2003)

Experiments:
[1] = test system: mice; conditions: cited from earlier work
[2] = Antioxidant activity of mouse food and pine bark extract (Table 2); type: biochemical
Protocol: The experimental mice were fed ad libitum on Archer's mouse food pellets dosed with measured doses of pine bark extract manufactured as above. Preferably, the present composition is administered in a form selected from the group including: a tablet; a capsule; a suppository; an injection; a suspension; a drink; a tonic; a syrup; a powder; an ingredient in solid foods; an ingredient in liquid foods; and combinations thereof, all of which are considered equivalent. Most preferably, the composition is administered orally as a powder mixed with food. The antioxidant composition of the food was as follows (Table 2 below): […]

[3] = test system: rodent; conditions: rodent trials, dietary supplementation; cited from earlier work

| Molecule | effect on maximum lifespan ([1]; mice fed supplement) | toxicity ([1]; mouse, in vivo) | EC50 ([2]; antioxidant composition of sample) [µg/mL] | RELATIVE ANTIOXIDANT ACTIVITY ([2]; relative to mouse pellet = 1) | effect on mean survivorship and maximum life span [3] |
| --- | --- | --- | --- | --- | --- |
| OCCS [2-mercaptoethanol] | increase in maximum lifespan | toxic |  |  |  |
| O=C1O[C@H]([C@@H](O)CO)C(O)=C1O [Vitamin C] |  |  | 3.79 | 1.76 | Increases in mean survivorship, but not maximum life span |
| vitamin E |  |  |  |  | Increases in mean survivorship, but not maximum life span |
